Data from ChEMBL document CHEMBL1156106 (J Med Chem, 2009).

Legend:
[1] = test system: Rattus norvegicus; test: Effect on behavioural activity in rat assessed as cocaine-induced lever response at 5 mg/kg, po pretreated with cocaine for 45 mins by drug-discrimination studies; format: functional
[2] = test system: Rattus norvegicus; test: Effect on behavioural activity in rat assessed as cocaine-induced lever response at 5 mg/kg, po pretreated with cocaine for 90 mins by drug-discrimination studies; format: functional
[3] = test system: Rattus norvegicus; test: Effect on behavioural activity in rat assessed as cocaine-induced lever response at 5 mg/kg, po pretreated with cocaine for 180 mins by drug-discrimination studies; format: functional
[4] = test system: Rattus norvegicus; test: Effect on behavioural activity in rat assessed as cocaine-induced lever response at 10 mg/kg, po pretreated with cocaine for 45 mins by drug-discrimination studies; format: functional
[5] = test system: Rattus norvegicus; test: Effect on behavioural activity in rat assessed as cocaine-induced lever response at 10 mg/kg, po pretreated with cocaine for 90 mins by drug-discrimination studies; format: functional
[6] = test system: Rattus norvegicus; test: Effect on behavioural activity in rat assessed as cocaine-induced lever response at 10 mg/kg, po pretreated with cocaine for 180 mins by drug-discrimination studies; format: functional
[7] = test system: Rattus norvegicus; test: Effect on behavioural activity in rat assessed as cocaine-induced lever response at 10 mg/kg, po pretreated with cocaine for 360 mins by drug-discrimination studies; format: functional
[8] = test system: Rattus norvegicus; test: Effect on behavioural activity in rat assessed as cocaine-induced lever response at 25 mg/kg, po pretreated with cocaine for 45 mins by drug-discrimination studies; format: functional
[9] = test system: Rattus norvegicus; test: Effect on behavioural activity in rat assessed as cocaine-induced lever response at 25 mg/kg, po pretreated with cocaine for 90 mins by drug-discrimination studies; format: functional
[10] = test system: Rattus norvegicus; test: Effect on behavioural activity in rat assessed as cocaine-induced lever response at 25 mg/kg, po pretreated with cocaine for 180 mins by drug-discrimination studies; format: functional
[11] = test system: Rattus norvegicus; test: Effect on behavioural activity in rat assessed as cocaine-induced lever response at 25 mg/kg, po pretreated with cocaine for 360 mins by drug-discrimination studies; format: functional
[12] = test system: Rattus norvegicus; test: Effect on behavioural activity in rat assessed as cocaine-induced lever response at 50 mg/kg, po pretreated with cocaine for 45 mins by drug-discrimination studies; format: functional
[13] = test system: Rattus norvegicus; test: Effect on behavioural activity in rat assessed as cocaine-induced lever response at 50 mg/kg, po pretreated with cocaine for 90 mins by drug-discrimination studies; format: functional
[14] = test system: Rattus norvegicus; test: Effect on behavioural activity in rat assessed as cocaine-induced lever response at 50 mg/kg, po pretreated with cocaine for 180 mins by drug-discrimination studies; format: functional
[15] = test system: Rattus norvegicus; test: Effect on behavioural activity in rat assessed as cocaine-induced lever response at 50 mg/kg, po pretreated with cocaine for 360 mins by drug-discrimination studies; format: functional
[16] = test system: Mus musculus; test: Antidepressant activity in ip dosed mouse assessed as stimulation of locomotor activity; format: functional
[17] = test system: Mus musculus; test: Antidepressant activity in ip dosed mouse assessed as stimulation of locomotor activity relative to cocaine; format: functional
[18] = test system: Mus musculus; test: Antidepressant activity in ip dosed mouse assessed as time to reach peak stimulation of locomotor activity; format: functional
[19] = test system: Mus musculus; test: Antidepressant activity in ip dosed mouse assessed as duration of locomotor activity; format: functional
[20] = test system: Rattus norvegicus; test: Effect on behavioural activity in rat assessed as cocaine-induced lever response at 1 mg/kg, ip pretreated with cocaine for 15 mins by drug-discrimination studies; format: functional; settings: route intraperitoneal
[21] = test system: Rattus norvegicus; test: Effect on behavioural activity in rat assessed as cocaine-induced lever response at 2.5 mg/kg, ip pretreated with cocaine for 15 mins by drug-discrimination studies; format: functional; settings: route intraperitoneal
[22] = test system: Rattus norvegicus; test: Effect on behavioural activity in rat assessed as cocaine-induced lever response at 5 mg/kg, ip pretreated with cocaine for 15 mins by drug-discrimination studies; format: functional; settings: route intraperitoneal
[23] = test system: Rattus norvegicus; test: Effect on behavioural activity in rat assessed as cocaine-induced lever response at 10 mg/kg, ip pretreated with cocaine for 15 mins by drug-discrimination studies; format: functional; settings: route intraperitoneal
[24] = test system: Rattus norvegicus; test: Effect on behavioural activity in rat assessed as cocaine-induced lever response at 25 mg/kg, ip pretreated with cocaine for 15 mins by drug-discrimination studies; format: functional; settings: route intraperitoneal
[25] = test system: Rattus norvegicus; test: Effect on behavioural activity in rat assessed as cocaine-induced lever response at 50 mg/kg, ip pretreated with cocaine for 15 mins by drug-discrimination studies; format: functional; settings: route intraperitoneal
[26] = test system: Rattus norvegicus; test: Effect on behavioural activity in po dosed rat assessed as cocaine-induced lever response pretreated with cocaine by drug-discrimination studies; format: functional
[27] = test system: Rattus norvegicus; test: Effect on behavioural activity in ip dosed rat assessed as cocaine-induced lever response pretreated with cocaine by drug-discrimination studies; format: functional
[28] = test system: Rattus norvegicus; test: Effect on behavioural activity in rat assessed as cocaine-induced lever response at 2.5 mg/kg, po pretreated with cocaine for 45 mins by drug-discrimination studies; format: functional
[29] = test system: Rattus norvegicus; test: Effect on behavioural activity in rat assessed as cocaine-induced lever response at 2.5 mg/kg, po pretreated with cocaine for 90 mins by drug-discrimination studies; format: functional
[30] = test system: Rattus norvegicus; test: Effect on behavioural activity in rat assessed as cocaine-induced lever response at 2.5 mg/kg, po pretreated with cocaine for 180 mins by drug-discrimination studies; format: functional
[31] = test system: Rattus norvegicus; test: Effect on behavioural activity in rat assessed as cocaine-induced lever response at 2.5 mg/kg, po pretreated with cocaine for 360 mins by drug-discrimination studies; format: functional
[32] = test system: Rattus norvegicus; test: Effect on behavioural activity in rat assessed as cocaine-induced lever response at 5 mg/kg, po pretreated with cocaine for 360 mins by drug-discrimination studies; format: functional
[33] = test system: Rattus norvegicus; test: Effect on behavioural activity in rat assessed as cocaine-induced lever response at 1 mg/kg, ip pretreated with cocaine for 30 mins by drug-discrimination studies; format: functional; settings: route intraperitoneal
[34] = test system: Rattus norvegicus; test: Effect on behavioural activity in rat assessed as cocaine-induced lever response at 2.5 mg/kg, ip pretreated with cocaine for 30 mins by drug-discrimination studies; format: functional; settings: route intraperitoneal
[35] = test system: Rattus norvegicus; test: Effect on behavioural activity in rat assessed as cocaine-induced lever response at 5 mg/kg, ip pretreated with cocaine for 30 mins by drug-discrimination studies; format: functional; settings: route intraperitoneal
[36] = test system: Rattus norvegicus; test: Effect on behavioural activity in rat assessed as cocaine-induced lever response at 10 mg/kg, ip pretreated with cocaine for 30 mins by drug-discrimination studies; format: functional; settings: route intraperitoneal
[37] = test system: Rattus norvegicus; test: Effect on behavioural activity in rat assessed as cocaine-induced lever response at 25 mg/kg, ip pretreated with cocaine for 30 mins by drug-discrimination studies; format: functional; settings: route intraperitoneal
[38] = target: Sodium-dependent serotonin transporter (Homo sapiens, UniProt P31645); test: biochemical; format: cell-based, HEK293
Sodium-dependent serotonin transporter, sequence (P31645 whole entry): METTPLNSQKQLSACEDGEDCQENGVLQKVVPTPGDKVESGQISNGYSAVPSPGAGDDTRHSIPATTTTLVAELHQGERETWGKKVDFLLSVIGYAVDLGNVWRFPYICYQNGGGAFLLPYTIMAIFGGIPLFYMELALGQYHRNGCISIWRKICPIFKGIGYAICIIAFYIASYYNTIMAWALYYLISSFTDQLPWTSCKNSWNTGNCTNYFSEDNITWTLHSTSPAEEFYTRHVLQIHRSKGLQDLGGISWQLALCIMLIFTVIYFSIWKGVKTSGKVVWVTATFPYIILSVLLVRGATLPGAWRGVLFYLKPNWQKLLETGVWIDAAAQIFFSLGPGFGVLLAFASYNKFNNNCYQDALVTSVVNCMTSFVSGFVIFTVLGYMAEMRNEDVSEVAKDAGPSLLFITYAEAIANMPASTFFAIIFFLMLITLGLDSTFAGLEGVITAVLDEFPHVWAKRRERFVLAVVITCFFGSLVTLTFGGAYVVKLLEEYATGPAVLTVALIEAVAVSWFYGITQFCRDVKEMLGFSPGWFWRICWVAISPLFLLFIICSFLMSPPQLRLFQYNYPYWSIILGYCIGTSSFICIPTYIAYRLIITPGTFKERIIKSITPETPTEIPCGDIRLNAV

[39] = target: Sodium-dependent dopamine transporter (Homo sapiens, UniProt Q01959); test: Displacement of [125I]RTI55 from cloned human DAT expressed in HEK293 cells; format: cell-based
Sodium-dependent dopamine transporter, sequence (Q01959 whole entry): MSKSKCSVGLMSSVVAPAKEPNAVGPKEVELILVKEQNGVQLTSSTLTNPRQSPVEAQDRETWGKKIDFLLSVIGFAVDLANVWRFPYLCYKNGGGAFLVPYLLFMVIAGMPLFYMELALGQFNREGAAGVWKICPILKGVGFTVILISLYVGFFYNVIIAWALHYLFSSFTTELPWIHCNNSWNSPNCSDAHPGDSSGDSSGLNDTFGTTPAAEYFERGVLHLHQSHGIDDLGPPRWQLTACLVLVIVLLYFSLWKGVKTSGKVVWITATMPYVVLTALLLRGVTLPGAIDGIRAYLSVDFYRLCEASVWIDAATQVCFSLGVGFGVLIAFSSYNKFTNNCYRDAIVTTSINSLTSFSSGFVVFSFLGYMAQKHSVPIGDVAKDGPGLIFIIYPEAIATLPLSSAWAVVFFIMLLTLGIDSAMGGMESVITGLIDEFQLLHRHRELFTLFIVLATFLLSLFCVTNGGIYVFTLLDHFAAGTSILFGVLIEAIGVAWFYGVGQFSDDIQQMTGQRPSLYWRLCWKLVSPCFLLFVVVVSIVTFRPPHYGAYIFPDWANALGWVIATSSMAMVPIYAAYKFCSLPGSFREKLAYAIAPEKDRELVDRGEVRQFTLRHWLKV

[40] = test system: Rattus norvegicus; test: Effect on behavioural activity in rat assessed as cocaine-induced lever response at 100 mg/kg, ip pretreated with cocaine for 15 mins by drug-discrimination studies; format: functional; settings: route intraperitoneal

CC(NC(C)(C)C)C(=O)c1cccc(Cl)c1 (centres undefined) [BUPROPION]
Activity [1]: 33% | Activity [2]: 0% | Activity [3]: 2.5% | Activity [4]: 17% | Activity [5]: 1% | Activity [6]: 0% | Activity [7]: 0% | Activity [8]: 50% | Activity [9]: 0% | Activity [10]: 22% | Activity [11]: 1% | Activity [12]: 83% | Activity [13]: 50% | Activity [14]: 17% | Activity [15]: 0% | ED50 [16]: 5.5 mg/kg | Activity [17]: 87% | Time to peak locomotor stimulation [18]: 0 min | Time [19]: 130 min | Activity [20]: 24.1% | Activity [21]: 0.7% | Activity [22]: 0% | Activity [23]: 67.1% | Activity [24]: 66.3% | Activity [25]: 66.7% | ED50 [26]: 22.8 mg/kg

CCCC(NC(C)(C)C)C(=O)c1ccc(Cl)c(Cl)c1 (centres undefined)
ED50 [27]: 3.9 mg/kg | Activity [28]: 17% | Activity [29]: 0% | Activity [30]: 0% | Activity [31]: 0% | Activity [1]: 0% | Activity [2]: 13% | Activity [3]: 0% | Activity [32]: 0% | Activity [4]: 33% | Activity [5]: 0% | Activity [6]: 5% | Activity [7]: 0% | Activity [8]: 58% | Activity [9]: 84% | Activity [10]: 17% | Activity [11]: 0% | ED50 [16]: 38 mg/kg | Activity [17]: 93% | Time to peak locomotor stimulation [18]: 0 min | Time [19]: 470 min | ED50 [26]: 22.8 mg/kg | Activity [33]: 0% | Activity [34]: 41.8% | Activity [35]: 33.3% | Activity [36]: 33.3% | Activity [37]: 100%

CC(NC1CCCC1)C(=O)c1cccc(Cl)c1 (centres undefined)
ED50 [27]: 10.9 mg/kg | Activity [28]: 17% | Activity [1]: 50% | Activity [2]: 0% | Activity [3]: 0% | Activity [32]: 0% | Activity [4]: 60% | Activity [5]: 33% | Activity [6]: 0% | Activity [8]: 67% | Activity [9]: 67% | Activity [11]: 34% | Activity [12]: 100% | Activity [14]: 33% | Activity [15]: 16% | Ki [38]: > 10 µM | ED50 [16]: 12.3 mg/kg | Activity [17]: 107% | Time to peak locomotor stimulation [18]: 0 min | Time [19]: 330 min | ED50 [26]: 6.6 mg/kg | Activity [33]: 0.9% | Activity [34]: 23.9% | Activity [35]: 0% | Activity [36]: 66.2% | Activity [37]: 83.4%

CCC(NC(C)(C)C)C(=O)c1ccc(Cl)c(Cl)c1 (centres undefined)
ED50 [27]: 6.3 mg/kg | Activity [28]: 33% | Activity [29]: 17% | Activity [30]: 50% | Activity [31]: 17% | Activity [1]: 17% | Activity [3]: 0% | Activity [32]: 0% | Activity [4]: 34% | Activity [5]: 0% | Activity [6]: 0% | Activity [7]: 2% | Activity [8]: 50% | Activity [9]: 33% | Activity [10]: 2% | Activity [11]: 33% | Activity [12]: 83% | Activity [13]: 67% | Activity [14]: 50% | Activity [15]: 16% | ED50 [16]: 38 mg/kg | Activity [17]: 69% | Time to peak locomotor stimulation [18]: 0 min | Time [19]: 60 min | ED50 [26]: 15.2 mg/kg | Activity [33]: 0% | Activity [34]: 33.3% | Activity [35]: 16.7% | Activity [37]: 100%

Cc1ccc(C(=O)C(C)NC(C)(C)C)cc1 (centres undefined)
ED50 [27]: 17.3 mg/kg | Ki [39]: > 10 µM | Ki [38]: > 10 µM | ED50 [16]: 3.8 mg/kg | Activity [17]: 26% | Time to peak locomotor stimulation [18]: 30 min | Time [19]: 60 min | Activity [22]: 0.6% | Activity [24]: 16.7% | Activity [25]: 66.7% | Activity [40]: 100%
